# Laboratory results: ChEMBL document CHEMBL4346694, “Identification of Three-Way DNA Junction Ligands through Screening of Chemical Libraries and Validation by Complementary in Vitro Assays” (J Med Chem, 2019)
# Activity calls are given as the source filed them. No cut-off for these calls is given here.
# Legend:
# [1] = Binding affinity to FAM-TWJ-S1/TWJ-S2/TAMRA-TWJ-S3 DNA (unknown origin) assessed as normalized FAM intensity at 1 uM measured at 5 mins interval for 1 hr by fluorescence assay relative to control
# [2] = Binding affinity to FAM-TWJ-S1 DNA (unknown origin) assessed as normalized FAM intensity at 1 uM measured at 5 mins interval for 1 hr by fluorescence assay relative to control
# [3] = Binding affinity to FAM-TWJ-TAMRA DNA (unknown origin) assessed as change in melting temperature at 1 uM after 30 mins by FRET assay
# [4] = Binding affinity to FAM-TWJ-TAMRA DNA (unknown origin) assessed as change in melting temperature at 1 uM after 30 mins in presence of 3 uM ds26 DNA by FRET assay
# [5] = Binding affinity to FAM-TWJ-TAMRA DNA (unknown origin) assessed as change in melting temperature at 1 uM after 30 mins in presence of 10 uM ds26 DNA by FRET assay
# [6] = Selectivity ratio of compound effect for binding affinity to FAM-TWJ-TAMRA DNA (unknown origin) assessed as change in melting temperature at 1 uM in absence of 10 uM ds26 DNA to compound effect for binding affinity to FAM-TWJ-TAMRA DNA (unknown origin) assessed as change in melting temperature at 1 uM in presence of 10 uM ds26 DNA
# [7] = Binding affinity to TWJ-S1/TWJ-S2/TWJ-S3 DNA (unknown origin) assessed as compound-DNA complex formation at 30 uM measured after 1 hr by sybrgold-staining based PAGE analysis
# [8] = Selectivity ratio of Kapp for TWJ DNA (unknown origin) to Kapp for ds17 DNA by equilibrium dialysis method (unknown origin)
# [9] = Binding affinity to TWJ DNA (unknown origin) assessed as equilibrium binding constant at 1:2 DNA to compound ratio after 1 hr by ESI-MS analysis
# [10] = Binding affinity to ds17 DNA measured after 24 hrs by equilibrium dialysis method
# [11] = Binding affinity to TWJ DNA (unknown origin) measured after 24 hrs by equilibrium dialysis method
# [12] = Binding affinity to ds17 DNA (unknown origin) assessed as equilibrium binding constant at 1:2 DNA to compound ratio after 1 hr by ESI-MS analysis
# MCF7 [13] = test: Antiproliferative activity against human MCF7 cells assessed as reduction in cell viability measured after 72 hrs by SRB assay; format: functional; conditions: MCF7, 72 h, read-out: LD50 (the source's name)
# [14] = Selectivity ratio of K for TWJ DNA (unknown origin) to K for ds17 DNA (unknown origin)
# MDA-MB-231 = test: Antiproliferative activity against human MDA-MB-231 cells assessed as reduction in cell viability measured after 72 hrs by SRB assay; format: functional; conditions: MDA-MB-231, 72 h, read-out: LD50 (the source's name)
# [15] = Cytotoxicity against human hTERT-BJ cells assessed as reduction in cell viability measured after 72 hrs by SRB assay; format: cell-based; conditions: read-out: LD50
# [16] = Selectivity index, ratio of LD50 for human hTERT-BJ cells to LD50 for human MDA-MB-231 cells; format: toxicity; conditions: hTERT-BJ cells versus MDA-MB-231 cells, read-out: Selectivity Index
# [17] = Selectivity index, ratio of LD50 for human hTERT-BJ cells to LD50 for human MCF7 cells; format: toxicity; conditions: hTERT-BJ cells versus MCF7 cells, read-out: Selectivity Index
# [18] = Binding affinity to ds17 DNA (unknown origin) assessed as equilibrium binding constant at 1:3 DNA to compound ratio after 1 hr by ESI-MS analysis
# MCF7 [19] = test: Induction of DNA damage in human MCF7 cells assessed as gammaH2AX accumulation at 10 times antiproliferative LD50 measured after 72 hrs by DAPI staining-based confocal laser scanning microscopic analysis; format: functional, cell-based
# [20] = Binding affinity to FAM-TWJ-S1/TWJ-S2/TWJ-S3 DNA (unknown origin) assessed as compound-DNA complex formation at 12 uM measured after 1 hr in presence of ds12 DNA by sybrgold-staining based PAGE analysis
Compound,Ratio [1] [%],Ratio [2] [%],ΔTm [3] [°C],Activity [7],ΔTm [4] [°C],ΔTm [5] [°C],Selectivity ratio [6] [%],other results
c1cc2ccc3cc2cc1CNCCNCCNCc1ccc2ccc(cc2c1)CNCCNCCNC3,46,37,4.2,Active,< 5,,,
C[n+]1ccc(-c2c3nc(c(-c4cc[n+](C)cc4)c4ccc([nH]4)c(-c4cc[n+](C)cc4)c4ccc([nH]4)c(-c4cc[n+](C)cc4)c4nc2C=C4)C=C3)cc1,86,8,22.5,,12,8,35,
c1cc2nc3ccc4cc3cc2cc1CNCCOCCNCc1ccc2nc3ccc(cc3cc2c1)CNCCOCCNC4,54,27,23,,20.4,17.1,84,Selectivity ratio [8]: > 1; K [9]: 1.9 ×10⁹ /M; Kapp [10]: 3.8 ×10⁵ /M; Kapp [11]: 1.4 ×10⁷ /M; K [12]: 3.1 ×10⁴ /M; CC50 (MCF7 [13]): 4800 nM; Selectivity ratio [14]: > 4; CC50 (MDA-MB-231): 2800 nM; CC50 at 72 h [15]: 1000 nM
c1cc2c3cccc(c3c1)CNCCOCCNCc1cccc3c(cccc13)CNCCOCCNC2,42,118,10.4,Active,8.9,8.5,82,Selectivity ratio [8]: > 1; K [9]: 4.7 ×10⁷ /M; Kapp [10]: 5.9 ×10⁵ /M; Kapp [11]: 8.7 ×10⁶ /M; K [12]: 7.5 ×10⁴ /M; CC50 (MCF7 [13]): 1300 nM; Selectivity ratio [14]: > 2; CC50 (MDA-MB-231): 160 nM; CC50 at 72 h [15]: 40 nM
c1cc2cc(c1)-c1cccc(c1)CNCCN1CCNCc3cccc(c3)-c3cccc(c3)CNCCN(CCNC2)CCNCc2cccc(c2)-c2cccc(c2)CNCC1,33,109,17.5,Active,16.6,15.9,91,Selectivity ratio [8]: > 2; K [9]: 3.9 ×10⁶ /M; Kapp [10]: 4.7 ×10⁴ /M; selectivity ratio [16]: 2; Kapp [11]: 6 ×10⁶ /M; K [12]: inactive; selectivity ratio [17]: 2; CC50 (MCF7 [13]): 100 nM; K [18]: 7.5 ×10³ /M; Selectivity ratio [14]: > 2; CC50 (MDA-MB-231): 1300 nM; CC50 at 72 h [15]: 2600 nM; Activity (MCF7 [19]): Active; Activity [20]: Active

# Continued, in another order:
Ratio [1] [%],Ratio [2] [%],ΔTm [3] [°C],Activity [7],Compound,ΔTm [4] [°C],ΔTm [5] [°C],Selectivity ratio [6] [%],other results
35,80,11.6,,c1cc2c3nc4c(cccc4cc3c1)CNCCOCCNCc1cccc3cc4cccc(c4nc13)CNCCOCCNC2,5.5,4.6,39,
63,40,0.8,inactive,NCCCNC[C@]12c3ccccc3[C@](CNCCCN)(c3ccccc31)c1cc3ccccc3cc12,,,,
23,100,0,inactive,c1cc2ccc3ccc(-[n+]4csc5ccccc54)c4ccc(c1)c2c34,,,,
72,27,11,,COCCOCCOCC[n+]1ccc(-c2c3nc(c(-c4cc[n+](CCOCCOCCOC)cc4)c4ccc([nH]4)c(-c4cc[n+](CCOCCOCCOC)cc4)c4nc(c(-c5cc[n+](CCOCCOCCOC)cc5)c5ccc2[nH]5)C=C4)C=C3)cc1,7,4,36,
22,101,1.5,inactive,Cn1c[n+](-c2ccc3ccc4cccc5ccc2c3c45)cn1,,,,
27,100,0.6,inactive,CN(C)CCCNCC12c3ccccc3C(CNCCCN(C)C)(c3ccccc31)c1ccccc12,,,,
